Data set [1] deals with Cy5 5'-labelled RNA, nucleotides -20 to +20 of acpP (target mRNA). Put plainly: Microscale thermophoresis (MST) binding affinity. The note with it: unconjugated ASO; for Binding affinity (in vitro): summary grade. The arrangement: species or system Salmonella enterica; key to Binding affinity (in vitro): -: Effect strength is represented by additional (+) signs.; Effect strength is represented by additional (+) signs.; ++: Effect strength is represented by additional (+) signs.; +++: Effect strength is represented by additional (+) signs. How it is done:
For each binding experiment, Cy5 5’-labelled RNA (as described above) was diluted to 10 nM in Buffer A (50 mM Tris-HCl pH 7.6, 250 mM KCl, 5 mM MgCl2, 1 mM DTT, 5% glycerol supplemented with 0.05% Tween 20). A series of 16 tubes with different ASO dilutions (500 nM to 0.015 nM) were prepared in Buffer A. For measurements, each ASO dilution was mixed with one volume of labeled RNA, which led to a final concentration of 5.0 nM labeled RNA and 250 nM to 0.007 nM of ASOs. The reaction was mixed by pipetting and incubated for 30 min at RT in the dark. Capillary forces were used to load the samples into Monolith NT.115 Premium Capillaries; measurements were performed using a Monolith Pico instrument (NanoTemper Technologies Gmbh, Munich, Germany) at an ambient temperature of 25 °C. Instrument parameters were adjusted to 5% LED power, medium MST power, and MST on-time of 2.5 s. An initial fluorescence scan was performed across the capillaries to determine sample quality, which was followed by 16 thermophoresis measurements. […] Data of two independent measurements were analyzed for the ΔFnorm value determined by the MO Affinity Analysis software (NanoTemper Technologies Gmbh, Munich, Germany). The fitting for EC50 values was done using the Hill equation within the MO Affinity Analysis software. Data are presented as the mean EC50 values of two independent experiments.
(In general: MST reads how a fluorescent partner responds to local heating, with and without ligand.)

Data set [2] has as its system outer membrane of Salmonella. Put plainly: Outer membrane permeabilization (NPN fluorescence). The arrangement: key to Outer-membrane permeation: -: Effect strength is represented by additional (+) signs.; Effect strength is represented by additional (+) signs.; ++: Effect strength is represented by additional (+) signs.; +++: Effect strength is represented by additional (+) signs. It counts as cell-based, Salmonella enterica serovar Typhimurium strain SL1344. The note with it: for Outer-membrane permeation: summary grade, ASO conjugated to the carrier peptide; for Outer membrane permeabilization, NPN fluorescence (in words): test compounds 10 µM final, added at 14 min, NPN 10 µM, 5 mM HEPES, 5 mM glucose pH 7.2, CTAB and Polymyxin B positive controls. How it is done:
The experiments were performed by modifying previously published protocols ([48]–[50]). Salmonella (WT SL1344, JVS-1574) were grown overnight in 4 ml MHB medium at 37 °C (with shaking at 220 rpm). Then the culture was diluted 1:100 and grown until OD 0.5 (∼2×10^8 cfu/mL). This culture was harvested and washed two times with 5mM HEPES and further diluted to OD 0.2 in 5 mM HEPES supplemented with 5 mM Glucose (pH 7.2). These cells were then incubated with N-phenylnaphthylamine (NPN) (Sigma, USA) at a final concentration of 10 µM. 190 µl of NPN treated cells were transferred into 96-well back plates with transparent bottom and fluorescence (excitation = 350 nm, emission = 420 nm) was recorded for 60 min (reading was performed every minute) using a Synergy H1 plate reader (Biotek). On the fourteenth minute, 10 µl of the test compounds (10 µM final concentration) was added into the wells. CTAB (Sigma, USA) 200 µM or Polymyxin B (Sigma, USA) 10 µg/ml (final concentration of 0.5 µg/ml) were used as positive controls, while water was used as negative control. The fluorescence of the wells were monitored using the same settings as above. The experiment was performed three times and Figure 10 is based on a single representative experiment.

The subject of data set [3] is AcpP::3xFLAG fusion protein. The experiment in a line: Western blot of intracellular AcpP protein levels. Type of data set: cell-based, Salmonella SL1344 AcpP::3xFLAG. The arrangement: key to AcpP protein reduction: -: Effect strength is represented by additional (+) signs.; Effect strength is represented by additional (+) signs.; ++: Effect strength is represented by additional (+) signs.; +++: Effect strength is represented by additional (+) signs. The note with it: for AcpP protein reduction: summary grade, KFF-ASO treatment (Figure 9); for AcpP protein level (in words): 5 µM KFF-ASO conjugate, 30, 60, 120, 240 min for PNA and PMO, 120 min for all other ASOs. How it is done:
Salmonella wild type (WT) and SL1344 AcpP::3xFLAG (chromosmal fusion of full length acpP to 3XFLAG-tag as described earlier([47]); internal strain number JVS-12398) were grown overnight in non-cation adjusted MHB. Bacterial cultures were diluted 1:100, grown to OD600 0.5 and subsequently diluted to approximately 10^6 cfu/ml in MHB. Then, 1.9 ml of each diluted bacterial solution was transferred into 5 ml low-binding tubes, pre-incubated at 37 °C for 10 min and treated with 100 µl of ASOs to adjust a final concentration of 5 µM. Water was added as negative control. The treatment with PNA and PMO was performed with aeration at 37 °C and 220 rpm shaking for 30, 60, 120 and 240 minutes while for all other ASOs, they were treated for 120 min only. Subsequently, the cells were collected by centrifugation at 4 °C and 16,000 ×g for 5 min, resuspended in 1× Protein Loading Buffer (62.6 mM Tris–HCl pH 6.8, 2 % SDS, 0.1 mg/ml bromophenol blue, 15.4 mg/ml DTT, 10 % glycerol) and denatured at 95 °C for 10 min.
For detection of AcpP::3xFLAG protein levels, samples were separated on an 12% SDS-PAA gel and transferred onto a Nitrocellulose membrane via semi dry western blotting. The membrane was probed with an α-FLAG antibody (Sigma; 1:1,000 in 1x TBS-T containing 3% BSA) at 4 °C overnight. After washing in 1x TBS-T, the membrane was incubated with a secondary HRP-conjugated anti-mouse antibody (Thermo Scientific; 1:5,000 in 1x TBS-T containing 1% BSA) at RT for 1 hour. Excessive antibody was removed by repeated wash steps in 1x TBS-T and the membrane was developed by Amersham™ ECL Select™ Western Blotting Detection Reagent Kit (Cytiva).
For orientation: A western blot detects proteins with antibodies after separation by electrophoresis.

Oligonucleotides are written 5' to 3', each unit as a sugar letter and its base; * is a phosphorothioate linkage, no mark a phosphodiester; rarer units and linkages stand in square brackets, end groups in braces. Plain capitals give the bases only. d = 2'-deoxy (DNA)

Take “DNA-PTO: 10mer phosphorothioate-modified DNA antisense oligomer, sequence CTCATACTCT, targeting acpP (antisense dC*dT*dC*dA*dT*dA*dC*dT*dC*dT)”: in data set [1], the “Binding affinity (in vitro)” value is listed as “-”. In addition, the “Binding affinity (EC50, nM)” value in data set [1] (MST, 5.0 nM labelled RNA, ASO 250 nM to 0.007 nM, 30 min RT, 25 °C, Hill fit, mean ± SD of two independent experiments) is “Could not be determined”. In data set [2], the Outer-membrane permeation entry is “-”. Besides, the AcpP protein reduction result in data set [3] is “-”.

As to “LNA: 10mer 2'-4'-locked RNA antisense oligomer, sequence CTCATACTCT, targeting acpP (all LNA, backbone and methylation of C not given here)”, in data set [1], the “Binding affinity (in vitro)” value is recorded as “+++”. For the same substance, the Outer-membrane permeation result in data set [2] is listed as “-”. Moreover, the AcpP protein reduction result in data set [3] is “-”.

Take “PMO: 10mer phosphorodiamidate morpholino antisense oligomer, sequence CTCATACTCT, targeting acpP (all phosphorodiamidate morpholino (PMO))”: the “Binding affinity (in vitro)” value in data set [1] was “++”. In data set [2], the Outer-membrane permeation result was “++” and the “Outer membrane permeabilization, NPN fluorescence (in words)” value is recorded as “this ability is retained”. In addition, in data set [3], the “AcpP protein level (in words)” value is given as “gradual depletion of AcpP, albeit less pronounced than PNA” and the AcpP protein reduction entry is on record as “+”.

On to “PNA: 10mer peptide nucleic acid antisense oligomer, sequence CTCATACTCT, targeting acpP (all peptide nucleic acid (PNA))”, for which the “Binding affinity (in vitro)” value in data set [1] was “+++”. Further, in data set [2], the Outer-membrane permeation entry is listed as “++” and the “Outer membrane permeabilization, NPN fluorescence (in words)” value was “this ability is retained”. Moreover, in data set [3], the “AcpP protein level (in words)” value is “depletion in AcpP levels can be observed from 60 min post treatment onwards” and the AcpP protein reduction result is reported as “++”.

“RNA-F: 10mer 2'-fluorinated RNA antisense oligomer, sequence CTCATACTCT, targeting acpP (all 2'-fluoro, backbone and T or U not given here)”: in data set [1], the “Binding affinity (in vitro)” value is “+”. The Outer-membrane permeation entry in data set [2] is recorded as “-”. Besides, the AcpP protein reduction entry in data set [3] is listed as “-”.

With “RNA-MOE: 10mer 2'-methoxyethylated RNA antisense oligomer, sequence CTCATACTCT, targeting acpP (all 2'-MOE, backbone and methylation of C not given here)”, the “Binding affinity (in vitro)” value in data set [1] is “+++”. Moreover, in data set [2], the Outer-membrane permeation entry was “-”. Further, the AcpP protein reduction entry in data set [3] is on record as “-”.

Take “RNA-OMe: 10mer 2'-methylated RNA antisense oligomer, sequence CTCATACTCT, targeting acpP (all 2'-O-methyl, backbone and T or U not given here)”: in data set [1], the “Binding affinity (in vitro)” value was “++”. The Outer-membrane permeation result in data set [2] is given as “-”. Also, the AcpP protein reduction entry in data set [3] is on record as “-”.

For the origin of these results see publication doi:10.1101/2023.07.11.548539v1, “A side-by-side comparison of peptide-delivered antisense antibiotics employing different nucleotide mimics” (bioRxiv, 2023).
